Each structure is given as a SMILES string.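 Where inhibition never reached the appropriate level, the endpoint shown equals the highest concentration tested. Otherwise, values were interpolated linearly from a five-concentration, 48-hour dose response in 96-well plates. TGI: total growth inhibition.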 Some results are limits rather than exact numbers.

Test systems include HOP-92 NSCLC; MCF7 breast; SK-MEL-5 melanoma; MDA-N; SNB-19 CNS; OVCAR-5 ovarian; IGROV1 ovarian; RPMI-8226 leukemia; MDA-MB-231 breast; SK-MEL-28 melanoma.
Holding throughout (test): NCI anticancer screen, dose series, 48 h

Regarding `Oc1[nH]c2ccccc2c1N=NC(=S)N1CCCCCC1`, the TGI with HOP-92 NSCLC was 6.55 µM; in the test with MCF7 breast it was 10.9 µM; with SK-MEL-5 melanoma, 2.04 µM; with MDA-N, 22.7 µM; in the test with SNB-19 CNS, 15.4 µM; in the test on OVCAR-5 ovarian, 12.4 µM. The TGI in the test on IGROV1 ovarian stood at 2.35 µM; with RPMI-8226 leukemia it was 4.15 µM; with MDA-MB-231 breast, 3.35 µM; in the test on SK-MEL-28 melanoma it was 7.61 µM.

On to `COC(=O)C[C@H](COCc1ccccc1)NC(=O)C[C@H](COCc1ccccc1)NC(=O)C[C@H](COCc1ccccc1)NC(=O)OC(C)(C)C`, for which the TGI in the test with HOP-92 NSCLC was 73.5 µM; with MCF7 breast it was 28.9 µM; in the test with SK-MEL-5 melanoma, more than 100 µM; with MDA-N, more than 100 µM; in the test on SNB-19 CNS it was more than 100 µM; with OVCAR-5 ovarian, more than 100 µM. The TGI in the test with IGROV1 ovarian, in the test on RPMI-8226 leukemia, in the test on MDA-MB-231 breast and in the test with SK-MEL-28 melanoma was more than 100 µM each time.

With `c1ccc(C(CCN2CCCC2)c2ccccn2)cc1` (stereo not given), the TGI in the test with HOP-92 NSCLC, in the test on MCF7 breast, with SK-MEL-5 melanoma, with MDA-N, with SNB-19 CNS and in the test with OVCAR-5 ovarian was more than 100 µM in each case. Besides, the TGI in the test with IGROV1 ovarian, in the test with RPMI-8226 leukemia, in the test on MDA-MB-231 breast and in the test with SK-MEL-28 melanoma was more than 100 µM throughout.

`CCC(=N\NC(N)=S)/C(C)=N/O`: the TGI in the test with HOP-92 NSCLC, in the test with MCF7 breast, in the test on SK-MEL-5 melanoma, with MDA-N, in the test with SNB-19 CNS and in the test on OVCAR-5 ovarian was more than 100 µM in each case. For the same molecule, the TGI in the test on IGROV1 ovarian, in the test with RPMI-8226 leukemia, in the test with MDA-MB-231 breast and in the test with SK-MEL-28 melanoma was more than 100 µM in each case.

For `Sc1nnc(-c2ccccc2Nc2ccccc2-c2nnc(S)n2-c2ccccc2)n1-c1ccccc1`, the TGI is 48.2 µM with HOP-92 NSCLC; more than 100 µM in the test with MCF7 breast; 80.9 µM in the test with SK-MEL-5 melanoma; 85.3 µM with MDA-N; more than 100 µM with SNB-19 CNS; more than 100 µM in the test with OVCAR-5 ovarian. Moreover, the TGI in the test with IGROV1 ovarian is 42.2 µM; in the test with RPMI-8226 leukemia, 48 µM; with MDA-MB-231 breast it was 89.6 µM; in the test on SK-MEL-28 melanoma, 44.7 µM.

On to `O=C1C=CC2(O[C@@H](Cc3ccccc3)[C@H](Cc3ccccc3)O2)C(SC(=O)c2ccccc2)C1` (stereo not given in full), for which the TGI in the test with HOP-92 NSCLC is 3.05 µM; in the test on MCF7 breast it was 2.12 µM; in the test with SK-MEL-5 melanoma, 3.16 µM; in the test on MDA-N it was 5.22 µM; in the test with SNB-19 CNS, 7.28 µM; in the test on OVCAR-5 ovarian, 1.74 µM. Further, the TGI in the test with IGROV1 ovarian amounted to 2.54 µM; in the test on RPMI-8226 leukemia, 1.24 µM; in the test with MDA-MB-231 breast it was 6.39 µM; in the test on SK-MEL-28 melanoma it was 3.44 µM.

For `CC(O)(c1ccccc1)c1nccc2ccccc12` (stereo not given), the TGI is 95.2 µM in the test with HOP-92 NSCLC; more than 100 µM in the test with MCF7 breast; more than 100 µM in the test on SK-MEL-5 melanoma; 53.7 µM in the test on MDA-N; more than 100 µM in the test on SNB-19 CNS; more than 100 µM with OVCAR-5 ovarian. In addition, the TGI in the test on IGROV1 ovarian, in the test with RPMI-8226 leukemia, in the test with MDA-MB-231 breast and in the test on SK-MEL-28 melanoma was more than 100 µM each time.

Turning to `C=CCC1NCCC2=C1C(S(=O)(=O)c1ccc(C)cc1)c1ccccc12` (stereo not given), the TGI in the test on HOP-92 NSCLC stood at 25.7 µM; in the test with MCF7 breast, 22 µM; in the test with SK-MEL-5 melanoma, 27.6 µM; in the test with MDA-N it was 20.2 µM; with SNB-19 CNS, 33.2 µM; in the test with OVCAR-5 ovarian, 33.2 µM. Also, the TGI in the test on IGROV1 ovarian is 23.3 µM; with RPMI-8226 leukemia, 27.8 µM; in the test on MDA-MB-231 breast, 25.5 µM; in the test on SK-MEL-28 melanoma, 26.6 µM.

As for `O=C1c2ccccc2C(=O)N1C(=S)c1ccccc1`, the TGI in the test on HOP-92 NSCLC, with MCF7 breast, in the test with SK-MEL-5 melanoma, in the test on MDA-N, with SNB-19 CNS and with OVCAR-5 ovarian was more than 100 µM each time. Besides, the TGI with IGROV1 ovarian, in the test with RPMI-8226 leukemia, in the test with MDA-MB-231 breast and in the test on SK-MEL-28 melanoma was more than 100 µM throughout.

As to `COc1ccc(N2C(=O)C3c4[nH]c5ccccc5c4C4CCC(C(C)C)CC4C3C2=O)cc1` (stereo not given), the TGI in the test on HOP-92 NSCLC, in the test on MCF7 breast, with SK-MEL-5 melanoma, in the test with MDA-N, with SNB-19 CNS and in the test with OVCAR-5 ovarian was more than 100 µM in each case. Besides, the TGI in the test on IGROV1 ovarian, with RPMI-8226 leukemia, in the test on MDA-MB-231 breast and in the test with SK-MEL-28 melanoma was more than 100 µM in each case.

Turning to `Clc1ccc(OCC2NC3C=CC32)cn1` (stereo not given), the TGI with HOP-92 NSCLC, in the test with MCF7 breast, in the test on SK-MEL-5 melanoma, in the test with MDA-N, in the test on SNB-19 CNS and with OVCAR-5 ovarian was more than 100 µM throughout. Moreover, the TGI in the test on IGROV1 ovarian, with RPMI-8226 leukemia, with MDA-MB-231 breast and in the test on SK-MEL-28 melanoma was more than 100 µM in each case.

Consider `FC1CCN(C2(c3cccs3)CCCCC2)CC1`, for which the TGI in the test on HOP-92 NSCLC, in the test on MCF7 breast, in the test on SK-MEL-5 melanoma, with MDA-N, with SNB-19 CNS and in the test with OVCAR-5 ovarian was more than 100 µM in each case. Further, the TGI in the test with IGROV1 ovarian, in the test with RPMI-8226 leukemia, in the test on MDA-MB-231 breast and in the test on SK-MEL-28 melanoma was more than 100 µM in each case.

These data come from PubChem BioAssay (NCI).
